From patent US12582631B2, “Methods of improving renal function” (Chinook Therapeutics, Inc., priority 2019, dated 2026)
“Also recorded” adds a separate entry of the source. Where two headings read alike, the source gives them in different places. Positions of bridges follow the written chain, without caps; N, C: chain ends. No end group written: not given here.

Key:
[1] = tested on: canonical signaling pathways in kidney tissue of g-ddY mice; experiment: Ingenuity Pathway Analysis (IPA) of canonical pathways, g-ddY kidney RNA-seq; type: in vivo, mouse; details: 30 mg/kg/day
g-ddY mice = experiment: UACR (albuminuria) in g-ddY mouse model of IgA nephropathy; type: in vivo; details: approximately 5 days
Text: The grouped ddY (g-ddY) mouse is a spontaneous model of early-onset IgA nephropathy characterized by IgA immune complex deposition in the mesangium of the kidney, leading to significant proteinuria, glomerular hypercellularity, mesangioproliferative glomerular lesions, glomerular sclerosis and reduced kidney function, all hallmarks of human IgA nephropathy (J Am Soc Nephrol 23: 1364-1374, 2012). Consistent with human IgA nephropathy, the mesangial IgA deposits in the g-ddY mouse are also accompanied by deposition of IgG and complement C3.

ET-1 stimulated HRMC = experiment: Hallmark gene set enrichment in ET-1 stimulated HRMC treated with atrasentan; type: cell-based, human; details: atrasentan at 1 nM and 25 nM
[2] = tested on: gene expression in kidney tissue of g-ddY mice; experiment: RNA-seq differential gene expression in kidney tissue of g-ddY mice (edgeR); type: in vivo, mouse
Method: RNA isolation and sequencing libraries were generated using standard protocols. Sequencing was performed using an Illumina NextSeq500 using manufacturer's instructions with a read length of 75 bp and a read depth of 30 million. Raw data was assembled to FASTQ files. Following QC analysis, high quality sequencing reads (e.g., reads with a Phred quality score >36) were aligned to the mouse reference genome (GRCm38-mm10) using the default parameters of the align algorithm and transcript count tables of each library was generated using the default parameters of the featureCounts algorithm of the RSubread package (Liao […], Shi W, 2019). High quality sequencing reads mapped to 27,129 genes. Following additional QC of low count filtering (i.e. transcripts <10 counts across all samples), 16,207 genes were identified and used for further analysis. The remaining sequencing read counts of the included 16,207 genes were normalized to library size, log-transformed, and were quantified as counts per million (CPM). Select RNA-seq counts were validated using qPCR. Sequencing read counts (CPM) were used for identification of differential gene expression between specified populations using the quasi-likelihood methodology of the edgeR package. […] MA plots were generated using edgeR. Heatmaps and other plots were generated using the gplots and ggplot2 package.

[3] = tested on: primary human renal mesangial cells (HRMCs); experiment: Proliferation (BrdU) of HRMCs stimulated with IgA-containing immune complexes from IgAN patients; type: cell-based; details: HRMCs treated with IgA containing serum fractions from healthy controls
[4] = tested on: IL-6 production in primary human renal mesangial cells (HRMCs); experiment: ET-1 induced IL-6 production in HRMCs (ELISA); type: cell-based; details: for IC50: Homo sapiens, Mesangial cell, read-out: IC50, ET-1 stimulated IL-6 production
[5] = tested on: hallmark gene sets in kidney tissue of g-ddY mice; experiment: Gene Set Enrichment Analysis (GSEA) of hallmark gene sets, g-ddY kidney RNA-seq; type: in vivo, mouse

In the case of `CCCCN(CCCC)C(=O)CN1C[C@H](c2ccc3c(c2)OCO3)[C@@H](C(=O)O)[C@@H]1c1ccc(OC)cc1` [atrasentan, (2R,3R,4S)-4-(1,3-benzodioxol-5-yl)-1-[2-(dibutylamino)-2-oxoethyl]-2-(4-methoxyphenyl)pyrrolidine-3-carboxylic acid], the NF-κB signaling [1] is reported as “reduced NF-κB signaling”, the PDGF signaling [1] is reported as “reduced PDGF signaling” and the “reduction of UACR from baseline” value (g-ddY mice; 20 mg/kg/day in drinking water) is reported as over 60%. The “albuminuria compared to baseline (paired t-test)” value (g-ddY mice; 20 mg/kg/day) was “reduced from baseline to a similar extent”, the “effect on UACR compared to control group (un-paired t-test)” value (g-ddY mice; 20 mg/kg/day) was “statistically significant compared to the control group; also recorded: significantly reduced albuminuria” and the “reduction of UACR from baseline” value (g-ddY mice; 30 mg/kg/day in drinking water) was over 60%. For the same compound, the “albuminuria compared to baseline (paired t-test)” value (g-ddY mice; 30 mg/kg/day) was “reduced albuminuria from baseline”, the “effect on UACR compared to control group (un-paired t-test)” value (g-ddY mice; 30 mg/kg/day) was “statistically significant compared to the control group; also recorded: significantly reduced albuminuria” and the “enrichment of hallmark gene sets” value (ET-1 stimulated HRMC) was “under-expression of hallmark gene sets”. The “differentially expressed genes of the ET1 gene signature” value (from here on “differentially expressed genes”) ([2]; 10 mg/kg/day vs untreated control) was “Ccnd1, Ppara, Agt, Map2k2 and Hoxa9 were upregulated while Grk5, Mllt3, Klf2, Pparg, Hgf, Edn1, Fos, Ptgs2, and IL-1b were downregulated”, the “differentially expressed genes” value ([2]; 20 mg/kg/day vs untreated control) was “Ccdn1, Cat, Ppara, Map2k2, Hoxa9, Agt, and Egfr were upregulated while Nfatc1, Grk5, Klf2, Cav1, Pparg, Itga5, Myc, Ednra, Sell, Hgf, Mmp2, Edn1, Syk, Fos, and IL-1b were downregulated” and the “Ednra and Ednrb gene expression” value ([2]; 30 mg/kg/day) was “downregulated”. For the same compound, the “differentially expressed genes” value ([2]; 30 mg/kg/day vs untreated control) was “upregulated genes Ccnd1, Agt, Cat, Map2k2, Hoxa9, and Ppara and downregulated genes Ednrb, Myc, Mllt3, Hdac7, Ednra, Itga5, Grk5, Pparg, Klf2, Hgf, Mmp2, Sell, Sphk1, Fos, Syk, Edn1, and IL-1b”, the “ET1 (End1) gene expression” value ([2]; all three doses (10, 20, 30 mg/kg/day)) was “downregulated” and the basal cell proliferation [3] was “had no effect on basal cell proliferation”. For the same compound, the IC50 ([4]; 48 h, 10 ng/mL ET-1, 48 hours) was about 1 nM, the IC50 ([4]; 72 h, 10 ng/mL ET-1, 72 hours) was about 1 nM and the IL-6 signaling ([5]; 30 mg/kg/day) was “reduced IL-6 signaling”. The “cell proliferation associated signaling (mitotic spindle and G2M checkpoint)” value ([5]; 30 mg/kg/day) was “reduced cell proliferation associated signaling”, the inflammatory response signaling ([5]; 30 mg/kg/day) was “reduced inflammatory response signaling” and the “NES of hallmark signaling pathways (TNFα signaling via NF-κB, epithelial mesenchymal transition, inflammatory response, IL6-JAK-STAT3 signaling, mitotic spindle, G2M checkpoint)” value ([5]; 10, 20, and 30 mg/kg/day, adjusted p-value <0.05) was under −1.5.

For “ET-1: endothelin 1 (ET-1), used at 10 ng/mL to stimulate primary human mesangial cells (CSCSSLMDKECVYFCHLDIIW; disulfide 1-15, 3-11; ends not checked; UniProt P05305 53-73, looked up)”, the “increase in IL-6 production” value ([4]; HRMCs exposed to ET-1 over 48 hours) was about 6 fold and the “increase in IL-6 production” value ([4]; HRMCs exposed to ET-1 over 72 hours) was about 2.2 fold.
